Laboratory results from ChEMBL document CHEMBL1131260, “Studies on selectin blockers. 6. Discovery of homologous fucose sugar unit necessary for E-selectin binding” (J Med Chem, 1998).

biological target: T1, E-selectin (Homo sapiens, UniProt P16581); test: In vitro inhibitory activity against Selectin E-sialyl Lewis X (sLex) binding
T1 sequence (P16581 whole entry): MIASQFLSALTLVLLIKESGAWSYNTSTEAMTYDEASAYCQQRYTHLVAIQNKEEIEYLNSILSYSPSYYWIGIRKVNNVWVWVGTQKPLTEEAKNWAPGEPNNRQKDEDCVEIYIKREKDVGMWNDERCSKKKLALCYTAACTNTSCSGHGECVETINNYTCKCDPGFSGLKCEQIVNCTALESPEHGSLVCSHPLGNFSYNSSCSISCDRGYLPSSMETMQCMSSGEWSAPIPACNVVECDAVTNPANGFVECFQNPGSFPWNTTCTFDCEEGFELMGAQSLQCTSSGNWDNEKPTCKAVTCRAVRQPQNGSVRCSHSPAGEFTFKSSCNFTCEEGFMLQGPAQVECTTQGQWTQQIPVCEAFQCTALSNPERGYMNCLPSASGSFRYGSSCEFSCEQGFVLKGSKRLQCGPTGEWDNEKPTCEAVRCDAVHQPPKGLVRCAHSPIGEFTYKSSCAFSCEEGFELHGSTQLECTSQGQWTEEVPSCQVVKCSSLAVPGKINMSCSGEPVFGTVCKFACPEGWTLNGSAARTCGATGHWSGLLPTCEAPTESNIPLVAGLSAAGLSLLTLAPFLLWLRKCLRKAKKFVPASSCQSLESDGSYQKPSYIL

Row | IC50 [µM] | Compound
1 | 3.1 | CCCCCCCCCCCCCCC(CCCCCCCCCCCCCC)C(=O)N[C@@H](CO[C@@H]1O[C@H](C(C)O)[C@@H](O)[C@@H]1O)C(=O)N[C@H](CCC(=O)O)C(=O)NC (some centres undefined)
2 | 4.3 | CCCCCCCCCCCCCCC(CCCCCCCCCCCCCC)C(=O)N[C@H](CO[C@@H]1O[C@H](C(C)O)[C@@H](O)[C@@H]1O)C(=O)N[C@@H](CCC(=O)O)C(=O)NC.N=C(N)NCCC[C@H](N)C=O (some centres undefined)
3 | 13 | CCCCCCCCCCCCCCC(CCCCCCCCCCCCCC)C(=O)NC(COC1O[C@@H](O)[C@@H](O)[C@H](O)[C@@H]1O)C(=O)N[C@H](CCC(=O)O)C(=O)NC (single isomer, unassigned)
4 | 1.5 | CCCCCCCCCCCCCCC(CCCCCCCCCCCCCC)C(=O)NC(CO[C@@H]1O[C@@H](O)[C@@H](O)[C@H](O)[C@@H]1O)C(=O)N[C@@H](CCC(=O)O)C(=O)NC (single isomer, unassigned)
